Test results from patent US9290440B2, “Bicyclic compound” (TOA EIYO LTD., priority 2012, dated 2016).

tested on: abdominal aorta ring specimen; experiment: Evaluation of blood vessel relaxing function (phenylephrine-contracted abdominal aorta ring); details: relaxation of rat abdominal aorta contracted with 1 μmol/L phenylephrine; without vs with 10 μmol/L ODQ
Description: The representative compounds of the present invention were evaluated by blood vessel relaxing function according to the following Test Example. In the assay, bleeding from the upper part of a heart of a rat (male, SD) was performed under anesthesia with pentobarbital (30 mg/kg) and then abdominal aorta was extracted. The connecting tissue adhered around blood vessel was removed from the abdominal aorta in an ice-cooled Krebs-Henseleit solution (KH solution) (118 mmol/L sodium chloride, 4.7 mmol/L potassium chloride, 1.2 mmol/L magnesium sulfate, 1.2 mmol/L potassium dihydrogen phosphate, 25 mmol/L sodium hydrogen carbonate, 2.5 mmol/L calcium chloride, and 10 mmol/L glucose, pH 7.4). After that, a ring specimen with length of 2 mm was prepared and fixed in 5 mL organ bath filled with a KH solution. The KH solution was kept at 37° C. and aerated with a mixture gas of 95% O2 and 5% CO2. The specimen was stabilized for 1 hour with static tension of 1 g. The KH solution was exchanged twice during that time. The tension on the specimen was recorded on a multi-channel recorder via pickup and amplifier. After the stabilization of the specimen, contraction was caused by using 1 μmol/L phenylephrine (Phe), and cumulative administration of each compound (0.001, 0.01, 0.03, 0.1, 0.3, 1, 3, 10, 30, 100, 1000, 10000 nmol/L) was performed. For the evaluation of a case in which 1H-1,2,4-oxadiazole-(4,3a)-quinoxalin-1-one (ODQ) is contained, 10 μmol/L ODQ was added 10 minutes before the Phe addition, and the same evaluation as above was performed.
EC50 value was calculated using four-parameter logistics model using Assay Explorer (Accelrys). The test compound solution was dissolved in DMSO such that the concentration of each test compound is 1000 times the final concentration.

Structure (SMILES)	EC50 Ratio (ODQ−/ODQ+)
O=C(O)CCCCN(CCc1ccccc1OCc1ccc(CCc2ccccc2)cc1)Cc1ccc(C(=O)O)cc1 [Cinaciguat, reference compound]	12.4
O=C(O)CCCCN(CCc1ccccc1OCc1cccc2c1CCCC2)C1CCCc2cc(C(=O)O)ccc21 (stereo not drawn) [Example 29, 5-{N-(4-Carboxybutyl)-N-[2-[2-(5,6,7,8-tetrahydronaphthalene-1-ylmethoxy)phenyl]ethyl]amino}-5,6,7,8-tetrahydronaphthalene-2-carboxylic acid]	5.0
O=C(O)CCCCN(CCc1ccccc1OCc1ccc(SCc2ccccc2)cc1)C1CCCc2cc(C(=O)O)ccc21 (stereo not drawn) [Example 15, 5-{N-[2-[2-(4-Benzylsulfanylbenzyloxyl)phenyl]ethyl]-N-(4-carboxybutyl)amino}-5,6,7,8-tetrahydronaphthalene-2-carboxylic acid]	9.0
